Assay results reported in US20090117083A1, “IMMUNOMODULATORY ALKALOIDS” (M N L PHARMA LIMITED, priority 2004, published 2009).
Where two headings read alike, the source gives them in different places.

What was measured:
α-L-fucosidase = biological target: T1, α-L-fucosidase (Bos taurus, UniProt Q2KIM0); assay: Glycosidase inhibition: α-L-fucosidase; assay type: biochemical, Bovine; conditions: 1 mg/ml; read-out: % inhibition, fucosidase
T1 construct: purchased Sigma
T1 sequence (Q2KIM0 23-468): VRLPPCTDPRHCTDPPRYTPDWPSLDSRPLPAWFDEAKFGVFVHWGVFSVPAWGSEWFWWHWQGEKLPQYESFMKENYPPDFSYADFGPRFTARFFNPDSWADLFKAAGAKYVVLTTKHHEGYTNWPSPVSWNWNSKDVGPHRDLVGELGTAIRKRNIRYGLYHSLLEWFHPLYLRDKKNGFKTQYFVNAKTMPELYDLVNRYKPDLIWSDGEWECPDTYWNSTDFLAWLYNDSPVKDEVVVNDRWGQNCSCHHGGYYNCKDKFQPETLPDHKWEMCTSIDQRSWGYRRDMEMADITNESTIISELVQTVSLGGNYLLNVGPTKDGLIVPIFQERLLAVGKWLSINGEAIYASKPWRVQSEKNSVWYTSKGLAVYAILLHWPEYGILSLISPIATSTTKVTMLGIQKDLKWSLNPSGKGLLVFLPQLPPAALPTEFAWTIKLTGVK
How it was run: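 Screening used 3.57 mM (final) p-nitrophenyl substrates in McIlvaine buffer at each enzyme's pH optimum, 20° C, with endpoint reading at 405 nm.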

[1] = tested on: Na^+-dependent D-glucose uptake; assay: Na+-dependent D-glucose uptake into intestinal brush border membrane vesicles; assay type: biochemical, ovine
[2] = biological target: rabbit gut mucosa α-D-glucosidase; assay: Inhibition of rabbit gut mucosa α-D-glucosidase; assay type: biochemical
[3] = biological target: T2, rabbit small intestine sucrase (Oryctolagus cuniculus, UniProt P07768); assay: Inhibition of rabbit small intestine sucrase; assay type: biochemical; conditions: 700 μM
T2 construct: from tissue; host or cells: rabbit small intestine

α-D-galactosidase = biological target: T3, α-D-galactosidase (Coffea arabica, UniProt Q42656); assay: Glycosidase inhibition: α-D-galactosidase; assay type: biochemical, Green coffee beans (Coffea sp.); conditions: read-out: % inhibition, galactosidase
T3 construct: purchased Sigma
Protocol: All enzymes were purchased from Sigma, as were the appropriate p-nitrophenyl substrates. Assays were carried out in microtitre plates. Enzymes were assayed in 0.1M citric acid/0.2M di-sodium hydrogen phosphate (McIlvaine) buffers at the optimum pH for the enzyme. All assays were carried out at 20° C. For screening assays the incubation assay consisted of 10 μl of enzyme solution, 10 μl of inhibitor solution (made up in water) and 50 μl of the appropriate 5 mM p-nitrophenyl substrate (3.57 mM final conc.) made up in McIlvaine buffer at the optimum pH for the enzyme.
The reactions were stopped with 0.4M glycine (pH 10.4) during the exponential phase of the reaction, which was determined at the beginning of the assay using blanks with water, which were incubated for a range of time periods to measure the reaction rate using 5 mM substrate solution. Endpoint absorbances were read at 405 nm with a Biorad microtitre plate reader (Benchmark). Water was substituted for the inhibitors in the blanks.

MCF-7 cells = assay: Effect on glycosylation of breast cancer cells (N-glycan HPLC); assay type: cell-based; conditions: 0.75 mM, 62 and 86 hour time points
Protocol: MCF-7 cells (European Collection of Cell Cultures Ref. 86012803) were taken from liquid nitrogen stock, thawed at room temperature and transferred to 10 ml Dulbeccos Modified Eagle's Medium with Hams F12, 15 mM Hepes and L-glutamine (DMEM: Cambrex Cat. No. BE12-719F) supplemented with 10% v/v foetal calf serum (FCS: BioWest Labs Cat. No. S02755, Lot. No. S1800). The FCS was pre-filtered through a 0.2 μm sterile filter.
The cells were then centrifuged at 1,500 rpm in a Centaur bench-top centrifuge and the supernatant removed. The cells were reconstituted in fresh media and seeded into two T75 cm^3 Nunclon tissue culture flasks and allowed to settle overnight at 37° C. in a 5% CO2 incubator. The flasks were wrapped in cling film to prevent cross-contamination and the following day the media was changed to include the antibiotics penicillin and streptomycin as a precautionary measure against infection (at concentrations of 1 mg/cm^3 and 5 mg/cm^3, respectively). […]
The cells were harvested using a non-enzymatic method. At each of the time points the cells were viewed under the inverted light microscope and the morphology evaluated. […] The number of cells was then counted in a haemocytometer and cell viability evaluated by mixing 0.1 cm^3 of each cell suspension with a drop of trypan blue solution. […]
Evaluated using the BioRad protein assay according to the manufacturer's instructions. […]

[4] = Group 1: 15 mg/kg i.p. daily, day 0
[5] = Group 1: 15 mg/kg i.p. daily, day 1
[6] = Group 1: 15 mg/kg i.p. daily, day 2
[7] = Group 1: 15 mg/kg i.p. daily, day 3
[8] = Group 1: 15 mg/kg i.p. daily, day 4
[9] = Group 1: 15 mg/kg i.p. daily, day 5
[10] = Group 1: 15 mg/kg i.p. daily, day 6
[11] = Group 1: 15 mg/kg i.p. daily, day 7
[12] = Group 1: 15 mg/kg i.p. daily, day 8
[13] = Group 1: 15 mg/kg i.p. daily, day −2
[14] = Group 2: 150 mg/kg i.p. daily, day 0
[15] = Group 2: 150 mg/kg i.p. daily, day 1
[16] = Group 2: 150 mg/kg i.p. daily, day 2
[17] = Group 2: 150 mg/kg i.p. daily, day 3
[18] = Group 2: 150 mg/kg i.p. daily, day 4
[19] = Group 2: 150 mg/kg i.p. daily, day 5
[20] = Group 2: 150 mg/kg i.p. daily, day 6
[21] = Group 2: 150 mg/kg i.p. daily, day 7
[22] = Group 2: 150 mg/kg i.p. daily, day 8
[23] = Group 2: 150 mg/kg i.p. daily, day −2

T2 sequence (P07768 1008-1827 limits assumed): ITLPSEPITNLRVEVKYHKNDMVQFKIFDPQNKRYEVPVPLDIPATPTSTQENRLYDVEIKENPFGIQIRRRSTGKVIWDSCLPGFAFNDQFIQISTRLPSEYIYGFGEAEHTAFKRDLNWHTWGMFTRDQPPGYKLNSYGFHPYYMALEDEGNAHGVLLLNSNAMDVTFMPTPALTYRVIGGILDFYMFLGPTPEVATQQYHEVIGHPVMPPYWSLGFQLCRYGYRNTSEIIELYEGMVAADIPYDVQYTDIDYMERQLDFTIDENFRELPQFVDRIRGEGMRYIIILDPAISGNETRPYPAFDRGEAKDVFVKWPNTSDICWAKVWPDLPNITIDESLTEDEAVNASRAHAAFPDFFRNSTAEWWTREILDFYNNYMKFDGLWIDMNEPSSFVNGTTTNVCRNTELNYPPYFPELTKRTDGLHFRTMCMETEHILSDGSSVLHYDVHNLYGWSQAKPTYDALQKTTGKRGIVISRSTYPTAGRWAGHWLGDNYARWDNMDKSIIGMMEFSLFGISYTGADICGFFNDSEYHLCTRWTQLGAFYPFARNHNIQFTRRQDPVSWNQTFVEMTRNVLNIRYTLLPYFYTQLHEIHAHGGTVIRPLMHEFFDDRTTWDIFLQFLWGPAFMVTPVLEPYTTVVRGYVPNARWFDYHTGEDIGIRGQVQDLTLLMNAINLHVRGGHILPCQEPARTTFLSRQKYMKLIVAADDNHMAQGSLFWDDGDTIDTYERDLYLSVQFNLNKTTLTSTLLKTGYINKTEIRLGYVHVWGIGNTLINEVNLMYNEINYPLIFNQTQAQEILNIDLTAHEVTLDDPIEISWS
T2 sequence (P07768 2-1007 partner limits assumed): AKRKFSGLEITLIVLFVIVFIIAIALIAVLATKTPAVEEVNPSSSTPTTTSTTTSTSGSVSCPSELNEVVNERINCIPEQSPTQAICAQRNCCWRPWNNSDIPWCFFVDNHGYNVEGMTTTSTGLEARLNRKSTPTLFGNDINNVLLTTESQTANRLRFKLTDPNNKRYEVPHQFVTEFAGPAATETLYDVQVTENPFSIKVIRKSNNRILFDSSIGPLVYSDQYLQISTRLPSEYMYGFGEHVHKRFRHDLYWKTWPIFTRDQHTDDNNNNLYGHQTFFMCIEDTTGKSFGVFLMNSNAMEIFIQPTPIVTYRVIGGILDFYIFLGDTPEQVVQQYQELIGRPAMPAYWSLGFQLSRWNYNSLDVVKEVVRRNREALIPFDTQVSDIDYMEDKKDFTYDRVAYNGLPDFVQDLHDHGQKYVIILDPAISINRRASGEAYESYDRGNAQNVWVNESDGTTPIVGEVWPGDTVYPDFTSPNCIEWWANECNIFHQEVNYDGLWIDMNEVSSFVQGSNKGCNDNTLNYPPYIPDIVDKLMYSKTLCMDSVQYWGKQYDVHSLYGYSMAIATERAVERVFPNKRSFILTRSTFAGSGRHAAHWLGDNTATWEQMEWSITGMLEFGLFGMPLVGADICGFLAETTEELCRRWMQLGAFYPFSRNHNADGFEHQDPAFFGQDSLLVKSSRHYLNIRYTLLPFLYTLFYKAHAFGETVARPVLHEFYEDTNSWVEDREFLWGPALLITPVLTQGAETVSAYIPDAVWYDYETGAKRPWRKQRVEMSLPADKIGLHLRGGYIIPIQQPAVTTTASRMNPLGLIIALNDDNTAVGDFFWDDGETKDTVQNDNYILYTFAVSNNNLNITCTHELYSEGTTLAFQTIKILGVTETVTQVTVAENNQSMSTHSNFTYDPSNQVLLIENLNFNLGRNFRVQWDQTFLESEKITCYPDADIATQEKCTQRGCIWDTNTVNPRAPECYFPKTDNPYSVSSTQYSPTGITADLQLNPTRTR
T3 sequence (Q42656 16-378): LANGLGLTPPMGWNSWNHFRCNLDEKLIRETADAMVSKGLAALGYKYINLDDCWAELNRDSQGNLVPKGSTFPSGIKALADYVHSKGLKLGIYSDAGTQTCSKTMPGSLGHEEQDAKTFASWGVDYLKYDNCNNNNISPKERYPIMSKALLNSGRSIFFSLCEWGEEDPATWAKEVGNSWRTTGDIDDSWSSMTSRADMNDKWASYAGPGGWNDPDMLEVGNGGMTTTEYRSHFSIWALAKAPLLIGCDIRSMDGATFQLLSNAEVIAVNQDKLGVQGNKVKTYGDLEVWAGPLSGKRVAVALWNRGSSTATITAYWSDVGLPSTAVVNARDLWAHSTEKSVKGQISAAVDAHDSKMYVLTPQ

OC[C@@H]1[C@@H](O)[C@H](O)[C@H]2[C@H](O)[C@@H](O)CN21 [casuarine (8)]
inhibition at 1000 µg/mL (α-L-fucosidase): -1% | Glucose uptake ([1]; initial rate, competition with labelled D-glucose, control 240): 265 pmol/s/mg | glucose transport, effect ([1]; versus control): slightly stimulated | IC50 [2]: 210 µM | inhibition of rabbit small intestine sucrase [3]: inhibited | Group mean weight (HSV-1 (SC16); [4]): 16.7 g | Weight (% change) (HSV-1 (SC16); [4]): 3.1% | Group mean weight (HSV-1 (SC16); [5]): 17.1 g | Weight (% change) (HSV-1 (SC16); [5]): 5.6% | Group mean weight (HSV-1 (SC16); [6]): 17.1 g | Weight (% change) (HSV-1 (SC16); [6]): 5.6% | Group mean weight (HSV-1 (SC16); [7]): 17.6 g | Weight (% change) (HSV-1 (SC16); [7]): 8.6% | Group mean weight (HSV-1 (SC16); [8]): 17.4 g | Weight (% change) (HSV-1 (SC16); [8]): 7.4% | Group mean weight (HSV-1 (SC16); [9]): 17.6 g | Weight (% change) (HSV-1 (SC16); [9]): 8.6% | Group mean weight (HSV-1 (SC16); [10]): 17.7 g | Weight (% change) (HSV-1 (SC16); [10]): 9.2% | Group mean weight (HSV-1 (SC16); [11]): 17.4 g | Weight (% change) (HSV-1 (SC16); [11]): 7.4% | Group mean weight (HSV-1 (SC16); [12]): 17.7 g | Weight (% change) (HSV-1 (SC16); [12]): 9.3% | Group mean weight (HSV-1 (SC16); [13]): 16.2 g | Weight (% change) (HSV-1 (SC16); [13]): 0% | Group mean weight (HSV-1 (SC16); [14]): 16 g | Weight (% change) (HSV-1 (SC16); [14]): 3.2% | Group mean weight (HSV-1 (SC16); [15]): 16.4 g | Weight (% change) (HSV-1 (SC16); [15]): 5.8% | Group mean weight (HSV-1 (SC16); [16]): 16.3 g | Weight (% change) (HSV-1 (SC16); [16]): 5.2% | Group mean weight (HSV-1 (SC16); [17]): 16.6 g | Weight (% change) (HSV-1 (SC16); [17]): 7.1% | Group mean weight (HSV-1 (SC16); [18]): 16.4 g | Weight (% change) (HSV-1 (SC16); [18]): 5.8% | Group mean weight (HSV-1 (SC16); [19]): 16.8 g | Weight (% change) (HSV-1 (SC16); [19]): 8.4% | Group mean weight (HSV-1 (SC16); [20]): 17 g | Weight (% change) (HSV-1 (SC16); [20]): 9.7% | Group mean weight (HSV-1 (SC16); [21]): 16.7 g | Weight (% change) (HSV-1 (SC16); [21]): 7.7% | Group mean weight (HSV-1 (SC16); [22]): 16.8 g | Weight (% change) (HSV-1 (SC16); [22]): 8.4% | Group mean weight (HSV-1 (SC16); [23]): 15.5 g | Weight (% change) (HSV-1 (SC16); [23]): 0% | ear thickness response (HSV-1 (SC16); versus infected untreated group): produced a reduction in ear thickness | inhibition at 1000 µg/mL (α-D-galactosidase): 4% | glycan synthesis and/or N-linked glycosylation in breast cancer cells (MCF-7 cells): can inhibit glycan synthesis and/or N-linked glycosylation
